# Reference: patent publication US12215460B2, “Methods of microbial control” (Clean Chemistry, Inc., priority 2015, dated 2025)
# Where two headings read alike, the source gives them in different places.
# What was measured:
# ORP of oxidants at pH 7 = format: physicochemical; settings: 29 mM
# [1] = TOX formation tests in pulp bleaching
# Protocol: […]. The pulp slurry was put into a 1 L glass beaker in a heated water bath. The beakers were fitted with liquid-tight covers to minimize evaporative losses of water and oxidants. After the pulp slurry was heated the oxidant solution and additional salt water was added to make a final composition of about 855 g water, 45.0 g of air-dry pulp, 8.55 g NaCl and the oxidant. The oxidant was mixed into the pulp slurry thoroughly with a stainless steel spatula for several minutes and then mixed periodically throughout the 2 hour bleaching period. The pH of the slurry was left at the natural pH created by each oxidant in the presence of the pulp.
# The amount of oxidant used in each test was enough to partially bleach the amount of lignin present so that the oxidant was the limiting reagent. When peracetate oxidant was combined with Kraft pulp the evolution of some gas was observed accompanied by rapid bleaching that was clearly visible within the first few minutes. […]. After 2 hours at 50° C. the pulp slurries were vacuum filtered through a Buchner funnel over a medium porosity filter paper. There was no residual oxidant present in the filtrates. The four filtrate solutions recovered were put into amber glass bottles and preserved with sulfuric acid for total organic halide analyses, which were conducted by a third party laboratory.
# [2] = Bleaching of Kraft pulp, hand sheet tests
# microbes = assay: Microbial control in water at slightly alkaline pH, oxidant comparison; format: cell-based
# Text: In some embodiments, microbial control in water at slightly alkaline pH was compared between peracetate oxidant, […] bleach, peracetic acid and […] dioxide. Alkaline pH is encountered in a variety of applications where microbial control and sanitization is needed, including pulp and paper processing, cooling towers, water treatment and chill tanks in poultry processing. […].
# [3] = Thermal activation in clean water at pH 8.5 and 50 C; format: physicochemical; settings: distilled water
# [4] = flowback water, 22 C, pH 6.5; initial 80 mg/L (peracetate as PAA; PAA with 112 mg/L H2O2)
# [5] = Entry 2, bleach time 30 min, 1.13 g/L PAA equiv., initial pH 8.2
# [6] = Entry 8, 30 min, 4.0 g/L, initial pH 8.0
# [7] = Entry 9, 30 min, 4.0 g/L, initial pH 8.9
compound,measurement,setting,value
OCl [hypochlorous acid],ORP,ORP of oxidants at pH 7,over 1.1 V (vs SHE)
OO [hydrogen peroxide],ORP,ORP of oxidants at pH 7,about 0.5 V (vs SHE)
sodium peracetate [peracetate oxidant],total organic halides (TOX) relative to chlorine dioxide,[1],about ten times less
[O][Cl+][O-] [chlorine dioxide],Final ORP,[2]; [5],896 mV vs SHE
same,Final pH,[2]; [5],6.4
same,Normalized TOX,[1],17.7 mg/L per 1000 mg/L oxidant
same,TOX,[1],17.7 mg/L
same,performance as antimicrobial disinfectant,microbes,performed well
CC(=O)OO [peracetic acid],Final ORP,"[2]; Entry 7, 30 min, 4.0 g/L, initial pH 7.0",502 mV vs SHE
same,Final pH,"[2]; Entry 7, 30 min, 4.0 g/L, initial pH 7.0, stock 11.4% PAA and 15.6% H2O2",7.0
same,Final ORP,[2]; [6],406 mV vs SHE
same,Final pH,[2]; [6],8.0
same,Final ORP,[2]; [7],253 mV vs SHE
same,Final pH,[2]; [7],8.8
same,Normalized TOX,"[1]; Kraft pulp 5% consistency, 1.0% NaCl, 50 C, 2 hours",4.5 mg/L per 1000 mg/L oxidant
same,TOX,"[1]; Kraft pulp 5% consistency, 1.0% NaCl, 50 C, 2 hours, initial 4000 mg/L peracetate (as PAA equivalents), 4000 PAA + 5400 H2O2, 1000 ClO2, blank 0.68",17.8 mg/L
same,time peracetic acid and hydrogen peroxide concentrations were stable,[3],about 90 minutes
same,ORP,[3]; constant during the test,around 280 mV vs SHE
same,performance as antimicrobial disinfectant,microbes,lowest performance
same,TOX,[4],"BDL (BDL = below detection limit, less than 0.05 mg/L)"
